Data from US11021518B2, “Theta defensin analogs” (The University of Southern California, priority 2019, dated 2021).
Bridge positions count the residues as written; N and C are the ends. Peptide text beside a SMILES is read from it.

What was measured:
TACE = TACE (Homo sapiens, UniProt P78536); experiment: inhibition of TACE; assay type: biochemical
[1] = tested on: carbapenem resistant strain of Klebsiella pneumoniae (KPC+-Kp BAA-1705 (ATCC)); experiment: murine carbapenem resistant Klebsiella pneumoniae sepsis model, survival; assay type: in vivo, BALB/c mice; conditions: for Kp sepsis % survival at 5 mg/kg: BALB/c mice, i.p. infection, peptide 5 mg/kg i.p. 1 hour post infection; for survival (FIG. 3 right panel): 0.5 mg/kg i.p. 1 hour post infection; for survival (FIG. 3 left panel): 5 mg/kg i.p. 1 hour post infection, sham controls 25% survival; for therapeutic effect on survival (FIG. 4): 1 hour post infection
Experimental: BALB/c mice were infected interperitoneally with 3-5×10^8 CFU of a carbapenem resistant strain of Klebsiella pneumoniae (KPC+-Kp BAA-1705 (ATCC)) and treated with peptide one hour post infection. […] P-values were determined by Fisher's exact test. The therapeutic peptides were provided intraperitoneally 1 hour after induction of sepsis.
BALB/c mice were infected i.p. with KPC+-Kp BAA-1705 (ATCC) and treated with a single dose of MTD12813, at the levels indicated, 1 hour post infection. The significance (P-values determined by Fisher's exact test) of the therapeutic effect for each dose is shown. […] It should be appreciated that 0.5 mg/kg is the lowest dose tested, and that Inventors believe that MTD12813 is effective at still lower doses, for example down to 0.25 mg/kg, […], or 10 μg/kg.

TNF-α (TNF) release = experiment: suppression of TNF-α (TNF) release; assay type: cell-based

Chain of TACE (P78536 215-824): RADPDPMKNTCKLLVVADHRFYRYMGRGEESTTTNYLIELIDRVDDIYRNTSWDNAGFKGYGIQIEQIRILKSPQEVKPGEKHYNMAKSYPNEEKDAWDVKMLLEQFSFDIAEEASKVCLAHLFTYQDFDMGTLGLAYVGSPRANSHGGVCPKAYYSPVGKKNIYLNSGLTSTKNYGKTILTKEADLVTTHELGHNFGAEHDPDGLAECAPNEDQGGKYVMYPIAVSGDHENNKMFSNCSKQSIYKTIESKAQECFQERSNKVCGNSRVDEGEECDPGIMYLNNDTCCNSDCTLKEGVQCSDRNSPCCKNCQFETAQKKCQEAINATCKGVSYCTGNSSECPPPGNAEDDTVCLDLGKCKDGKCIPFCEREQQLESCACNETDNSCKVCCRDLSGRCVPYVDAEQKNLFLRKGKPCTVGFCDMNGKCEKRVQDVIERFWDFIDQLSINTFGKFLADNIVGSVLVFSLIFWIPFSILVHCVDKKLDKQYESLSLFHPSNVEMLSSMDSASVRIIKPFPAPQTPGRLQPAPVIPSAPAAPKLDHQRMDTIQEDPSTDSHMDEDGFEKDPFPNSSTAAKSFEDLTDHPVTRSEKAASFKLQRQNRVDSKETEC

Row | Molecule | IC50 (TACE) [nM] | Kp sepsis % survival at 5 mg/kg [1] | TNF % suppression at 5 mg/kg (TNF-α (TNF) release) [%] | survival (FIG. 3 right panel) [1] | survival (FIG. 3 left panel) [1] | therapeutic effect on survival (FIG. 4) ([1]; single dose 0.5 mg/kg, lowest dose tested) | therapeutic effect on survival (FIG. 4) ([1]; single dose 1.25 mg/kg)
1 | CC[C@H](C)[C@@H]1NC(=O)[C@@H]2CSSC[C@H](NC(=O)[C@H](CC(C)C)NC(=O)[C@@H]3CSSC[C@H](NC1=O)C(=O)N[C@@H](CCCNC(=N)N)C(=O)N[C@@H](CCCNC(=N)N)C(=O)N[C@@H](CCCNC(=N)N)C(=O)N[C@@H](Cc1ccccc1)C(=O)N3)C(=O)N[C@@H](CCCNC(=N)N)C(=O)N[C@@H](CCCNC(=N)N)C(=O)NCC(=O)N[C@@H](C)C(=O)N2 [MTD1286] (cyclo(ACICRRRFCLCRRG); disulfide 2-11, 4-9) | 305 | – | – | – | – | – | –
2 | CC(C)C[C@@H]1NC(=O)[C@@H]2CSSC[C@H](NC(=O)[C@H](CO)NC(=O)[C@@H]3CSSC[C@H](NC1=O)C(=O)N[C@@H](CCCNC(=N)N)C(=O)N[C@@H](CCCNC(=N)N)C(=O)NCC(=O)N[C@@H](C(C)C)C(=O)N3)C(=O)N[C@@H](CCCNC(=N)N)C(=O)N[C@@H](CCCNC(=N)N)C(=O)N[C@@H](CCCNC(=N)N)C(=O)N[C@@H](Cc1ccccc1)C(=O)N2 [MTD12810] (cyclo(CLCRRGVCSCRRRF); disulfide 1-10, 3-8) | 1540 | 0% | 2.0 | – | – | – | –
3 | CC[C@H](C)[C@@H]1NC(=O)[C@@H]2CSSC[C@H](NC(=O)[C@H]([C@@H](C)CC)NC(=O)[C@@H]3CSSC[C@H](NC1=O)C(=O)N[C@@H](CCCNC(=N)N)C(=O)N[C@@H](CCCNC(=N)N)C(=O)NCC(=O)N[C@@H](C(C)C)C(=O)N3)C(=O)N[C@@H](CCCNC(=N)N)C(=O)N[C@@H](CCCNC(=N)N)C(=O)NCC(=O)N[C@@H](C(C)C)C(=O)N2 [MTD1281] (cyclo(CICRRGVCICRRGV); disulfide 1-10, 3-8) | 347 | 40% | 83.0 | – | – | – | –
4 | CC[C@H](C)[C@@H]1NC(=O)[C@@H]2CSSC[C@H](NC(=O)[C@H]([C@@H](C)CC)NC(=O)[C@@H]3CSSC[C@H](NC1=O)C(=O)NCC(=O)N[C@@H](CCCNC(=N)N)C(=O)NCC(=O)N[C@@H](C(C)C)C(=O)N3)C(=O)N[C@@H](CCCNC(=N)N)C(=O)N[C@@H](CCCNC(=N)N)C(=O)N[C@@H](CCCNC(=N)N)C(=O)N[C@@H](C(C)C)C(=O)N2 [MTD12813] (cyclo(CGRGVCICRRRVCI); disulfide 1-6, 8-13) | 546 | 100% | 95.6 | ~90% | complete protection | highly effective | as effective as 5 mg/kg
5 | CC[C@H](C)[C@@H]1NC(=O)[C@@H]2CSSC[C@H](NC(=O)[C@H](CO)NC(=O)[C@@H]3CSSC[C@H](NC1=O)C(=O)N[C@@H](CCCNC(=N)N)C(=O)N[C@@H](CCCNC(=N)N)C(=O)N[C@@H](CCCNC(=N)N)C(=O)N[C@@H](Cc1ccccc1)C(=O)N3)C(=O)N[C@@H](CCCNC(=N)N)C(=O)N[C@@H](CCCNC(=N)N)C(=O)NCC(=O)N[C@@H](C(C)C)C(=O)N2 [MTD12812] (cyclo(CICRRRFCSCRRGV); disulfide 1-10, 3-8) | 1100 | 20% | 14.9 | – | – | – | –
6 | CC(C)C[C@@H]1NC(=O)[C@@H]2CSSC[C@H](NC(=O)[C@H](CC(C)C)NC(=O)[C@@H]3CSSC[C@H](NC1=O)C(=O)N[C@@H](CCCNC(=N)N)C(=O)N[C@@H](CCCNC(=N)N)C(=O)NCC(=O)N[C@@H](C(C)C)C(=O)N3)C(=O)N[C@@H](CCCNC(=N)N)C(=O)N[C@@H](CCCNC(=N)N)C(=O)NCC(=O)N[C@@H](C(C)C)C(=O)N2 [MTD1284] (cyclo(CLCRRGVCLCRRGV); disulfide 1-10, 3-8) | 732 | 53.3% | 78.8 | – | – | – | –
7 | CC(C)[C@@H]1NC(=O)CNC(=O)[C@H](CCCNC(=N)N)NC(=O)[C@H](CCCNC(=N)N)NC(=O)[C@@H]2CSSC[C@H](NC1=O)C(=O)N[C@@H](C)C(=O)N[C@H]1CSSC[C@H](NC(=O)[C@H](Cc3ccccc3)NC(=O)[C@H](CCCNC(=N)N)NC(=O)[C@H](CCCNC(=N)N)NC(=O)[C@H](CCCNC(=N)N)NC1=O)C(=O)N[C@@H](C)C(=O)N2 [MTD1289] (cyclo(ACRRGVCACRRRFC); disulfide 2-7, 9-14) | 1670 | – | – | – | – | – | –
8 | CC(C)[C@@H]1NC(=O)CNC(=O)[C@H](CCCNC(=N)N)NC(=O)[C@H](CCCNC(=N)N)NC(=O)[C@@H]2CSSC[C@H](NC1=O)C(=O)N[C@@H](C)C(=O)N[C@H]1CSSC[C@H](NC(=O)[C@H](Cc3ccccc3)NC(=O)[C@H](CCCNC(=N)N)NC(=O)[C@H](CCCNC(=N)N)NC(=O)[C@H](C)NC1=O)C(=O)N[C@@H](C)C(=O)N2 [MTD12815] (cyclo(ACARRFCACRRGVC); disulfide 2-7, 9-14) | 1180 | – | – | – | – | – | –
9 | CC[C@H](C)[C@@H]1NC(=O)[C@@H]2CSSC[C@H](NC(=O)[C@H](CC(C)C)NC(=O)[C@@H]3CSSC[C@H](NC1=O)C(=O)N[C@@H](CCCNC(=N)N)C(=O)N[C@@H](CCCNC(=N)N)C(=O)N[C@@H](CCCNC(=N)N)C(=O)N[C@@H](Cc1ccccc1)C(=O)N3)C(=O)N[C@@H](CCCNC(=N)N)C(=O)N[C@@H](CCCNC(=N)N)C(=O)NCC(=O)N[C@@H](C(C)C)C(=O)N2 [MTD1280] (cyclo(CICRRRFCLCRRGV); disulfide 1-10, 3-8) | 1280 | 80-100% | 98.7 | essentially identical to that of the sham control | – | – | –
10 | CC[C@H](C)[C@@H]1NC(=O)[C@@H]2CSSC[C@H](NC(=O)[C@H](CO)NC(=O)[C@@H]3CSSC[C@H](NC1=O)C(=O)N[C@@H](CCCNC(=N)N)C(=O)N[C@@H](CCCNC(=N)N)C(=O)NCC(=O)N[C@@H](C(C)C)C(=O)N3)C(=O)N[C@@H](CCCNC(=N)N)C(=O)N[C@@H](CCCNC(=N)N)C(=O)N[C@@H](CCCNC(=N)N)C(=O)N[C@@H](Cc1ccccc1)C(=O)N2 [MTD12811] (cyclo(CICRRGVCSCRRRF); disulfide 1-10, 3-8) | 1890 | 30% | 37.5 | – | – | – | –
11 | RTD-1: naturally occurring rhesus monkey θ-defensin, cyclic octadecapeptide with 3 disulfide bonds (cyclo(GFCRCLCRRGVCRCICTR); disulfide (positions not given here); not fully specified (bridges); also: three disulfide bonds, pairing not given here; listed as Macaca mulatta) [reference compound] | – | – | – | – | 70% | – | –
